Legend:
[1] = Measurement of Log P values by HPLC on reversed phase columns (EEC directive 79/831 Annex V.A8); type: physicochemical; settings: reversed phase HPLC column, method [a]: LC-UV, acidic range, 0.1% formic acid in water and acetonitrile as eluent
Procedure, shortened: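 Reversed-phase HPLC with UV detection per EEC 79/831 Annex V.A8, linear 10–95% acetonitrile gradient. Aqueous eluent: 0.1% formic acid (acidic), 0.001 M ammonium acetate (neutral), or 0.1% phosphoric acid (acidic); multiple values in one method joined by "+".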

Pyrenophora teres = test: In vivo preventive test on Pyrenophora teres (net blotch on barley); settings: 240 h, 500 ppm of active ingredient, preventive spray on barley, evaluated 10 days after inoculation, read-out: efficacy
Procedure, shortened: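 Young barley plants sprayed preventively with compound formulated in DMSO/acetone/Tween 80 and diluted in water; controls got solvent only. Inoculated 24 hours later with P. teres spore suspension, then held 48 hours at 20° C, 100% RH and 8 days at 20° C, 70-80% RH.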

Alternaria alternata = Alternaria alternata in vitro cell test; type: cell-based; settings: 120 h, 20 ppm of active ingredient, liquid culture, 5 days incubation, spectrometric measurement of mycelium growth, read-out: efficacy (inhibition of fungal growth)
Procedure, shortened: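 Liquid culture assay in which A. alternata spores in medium received DMSO-solubilized compound (final DMSO ≤1%). After 5 days, mycelium growth was measured spectrometrically. Inhibition was calculated against fungicide-free control wells.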

Row | chromatographic logP [1] | SMILES | pest or weed control at 500 ppm (Pyrenophora teres) [%] | inhibition at 20 ppm (Alternaria alternata) [%]
1 | 4.38 | Cc1ccc(C(F)(F)CNC(=O)c2c(Oc3cccc(Br)c3)nnc3ccccc23)c(C)c1 [I-216] | 70 to 79 | 90 to 100
2 | 3.94 | O=C(NCC(F)(F)c1ccc(Br)cc1Cl)c1c(Oc2cccc(C(F)(F)F)c2)nnc2c1COCC2 [I-229] | 70 to 79 | 90 to 100
3 | 4.05 | Cc1ccc(C(F)(F)CNC(=O)c2c(Oc3cccc(C4CC4)c3F)nnc3c2CCC3)c(Cl)c1 [I-144] | 80 to 89 | 90 to 100
4 | 3.94 | Cc1cc(Br)ccc1C(F)(F)CNC(=O)c1c(Oc2cccc(C(F)(F)F)c2)nnc2c1COCC2 [I-127] | 70 to 79 | 90 to 100
5 | 3.61 | Cc1ccc(C(F)CNC(=O)c2c(Oc3cccc(C(F)(F)F)c3)nnc3c2COCC3)c(C)c1 (stereo not drawn) [I-123] | 90 to 100 | 90 to 100
6 | 4.7 | Cc1ccc(C(F)(F)CNC(=O)c2c(Oc3cccc(C(F)(F)F)c3)nnc3cc(C)ccc23)c(Cl)c1 [I-245] | 90 to 100 | 90 to 100
7 | 4.08 | Cc1ccc(C(F)(F)CNC(=O)c2c(Oc3cccc(C(F)F)c3)cnc3ccccc23)c(C)c1 [I-220] | 70 to 79 | 90 to 100
8 | 4.17 | Cc1ccc(C(F)(F)CNC(=O)c2c(Oc3cccc(C4CC4)c3F)nnc3c2CCC3)c(C)c1 [I-134] | 80 to 89 | 90 to 100
9 | 4.18 | O=C(NC[C@H](F)c1ccc(Cl)cc1Cl)c1c(Oc2cccc(C(F)(F)F)c2)cnc2ccoc12 (racemic) [I-067] | 80 to 89 | 90 to 100
10 | 3.94 | Cc1ccc(C(F)(F)CNC(=O)c2c(Oc3cccc(Cl)c3F)nnc3c2CCCC3)c(Cl)c1 [I-140, 3-(3-chloro-2-fluoro-phenoxy)-N-[2-(2-chloro-4-methyl-phenyl)-2,2-difluoro-ethyl]-5,6,7,8-tetrahydrocinnoline-4-carboxamide] | 90 to 100 | 90 to 100
11 | 3.89 | O=C(NCC(F)c1ccc(Cl)cc1Cl)c1c(Oc2cccc(Cl)c2F)nnc2c1CCC2 (stereo not drawn) [I-188] | 90 to 100 | 90 to 100
12 | 3.89 | Cc1ccc(C(F)(F)CNC(=O)c2c(Oc3cccc(Cl)c3)nnc3c2CCCC3)c(Cl)c1 [I-139] | 80 to 89 | 90 to 100
13 | 4 | Cc1ccc(C(F)(F)CNC(=O)c2c(Oc3cccc(C(F)(F)F)c3)nnc3c2CCC3)c(C)c1 [I-132] | 90 to 100 | 90 to 100
14 | 3.78 | Cc1ccc(C(F)CNC(=O)c2c(Oc3cccc(Cl)c3F)nnc3c2CCCC3)c(C)c1 (stereo not drawn) [I-136] | 90 to 100 | 90 to 100
15 | 4.11 | O=C(NCC(F)c1ccc(Cl)cc1Cl)c1c(Oc2cccc(C3CC3)c2)nnc2c1CCCC2 (stereo not drawn) [I-119, 3-(3-cyclopropylphenoxy)-N-[2-(2,4-dichlorophenyl)-2-fluoro-ethyl]-5,6,7,8-tetrahydrocinnoline-4-carboxamide] | 90 to 100 | 90 to 100
16 | 4.19 | Cc1ccc([C@@H](F)CNC(=O)c2c(Oc3cccc(C(F)(F)F)c3)nnc3ccccc23)cc1C (racemic) [I-084] | 90 to 100 | 90 to 100
17 | 4.05 | Cc1ccc(C(F)(F)CNC(=O)c2c(Oc3cccc(C(F)(F)F)c3)nnc3c2CCCC3)c(Cl)c1 [I-239] | 90 to 100 | 90 to 100
18 | 4.05 | Cc1ccc(C(F)(F)CNC(=O)c2c(Oc3cccc(Br)c3F)nnc3c2CCCC3)c(C)c1 [I-128] | 90 to 100 | 90 to 100
19 | 3.89 | Cc1ccc(C(F)(F)CNC(=O)c2c(Oc3cccc(Cl)c3F)nnc3c2CCC3)c(C)c1 [I-133] | 90 to 100 | 90 to 100
20 | 4.28 | Cc1cc(Cl)ccc1C(F)(F)CNC(=O)c1c(Oc2cccc(C(F)(F)F)c2)nnc2c1CCCC2 [I-145] | 90 to 100 | 90 to 100
21 | 4 | Cc1ccc(C(F)(F)CNC(=O)c2c(Oc3cccc(Cl)c3F)nnc3c2CCCC3)c(C)c1 [I-130] | 90 to 100 | 90 to 100
22 | 4 | Cc1ccc(C(F)CNC(=O)c2c(Oc3cccc(C4CC4)c3F)nnc3c2CCCC3)c(C)c1 (stereo not drawn) [I-137] | 80 to 89 | 90 to 100

Row | chromatographic logP [1] | SMILES | pest or weed control at 500 ppm (Pyrenophora teres) [%] | inhibition at 20 ppm (Alternaria alternata) [%]
23 | 3.75 | O=C(NCC(F)c1ccc(Cl)cc1Cl)c1c(Oc2cccc(C(F)(F)F)c2)nnc2c1COCC2 (stereo not drawn) [I-126] | 70 to 79 | 90 to 100
24 | 3.63 | Cc1ccc(C(F)(F)CNC(=O)c2c(Oc3cccc(C(F)F)c3)nnc3c2CCCC3)c(Cl)c1 [I-243] | 90 to 100 | 90 to 100
25 | 4.66 | Cc1ccc2c(C(=O)NCC(F)(F)c3ccc(C)c(C)c3)c(Oc3cccc(C(F)(F)F)c3)nnc2c1 [I-246] | 80 to 89 | 90 to 100
26 | 4.54 | Cc1ccc(C(F)(F)CNC(=O)c2c(Oc3cccc(C4CC4)c3F)nnc3ccccc23)c(C)c1 [I-071, 3-(3-cyclopropyl-2-fluoro-phenoxy)-N-[2-(2,4-dimethyl-phenyl)-2,2-difluoro-ethyl]cinnoline-4-carboxamide] | 90 to 100 | 90 to 100
27 | 3.7 | Cc1ccc(C(F)(F)CNC(=O)c2c(Oc3cccc(C(F)(F)F)c3)nnc3c2COCC3)c(Cl)c1 [I-124] | 80 to 89 | 90 to 100
28 | 3.84 | Cc1cc(Br)ccc1C(F)(F)CNC(=O)c1c(Oc2cccc(C(F)F)c2)nnc2c1CCCC2 [I-150] | 90 to 100 | 90 to 100
29 | 4.17 | Cc1ccc(C(F)(F)CNC(=O)c2c(Oc3cccc(C4CC4)c3F)nnc3c2CCCC3)c(Cl)c1 [I-141] | 90 to 100 | 90 to 100
30 | 4.4 | Cc1ccc(C(F)(F)CNC(=O)c2c(Oc3cccc(Br)c3F)nnc3ccccc23)c(C)c1 [I-227] | 70 to 79 | 90 to 100
31 | 4 | Cc1cc(Cl)ccc1C(F)(F)CNC(=O)c1c(Oc2cccc(Cl)c2F)nnc2c1CCC2 [I-148] | 90 to 100 | 90 to 100
32 | 4.42 | Cc1ccc(CCNC(=O)c2c(Oc3cccc(C4CC4)c3F)nnc3ccccc23)c(C)c1 [I-070] | 90 to 100 | 90 to 100
33 | 4.05 | O=C(NCC(F)c1ccc(Cl)cc1Cl)c1c(Oc2cccc(C(F)(F)F)c2)nnc2c1CCCC2 (stereo not drawn) [I-118] | 90 to 100 | 90 to 100
34 | 3.94 | Cc1ccc(C(F)(F)CNC(=O)c2c(Oc3cccc(C(F)(F)F)c3)nnc3c2CCC3)c(Cl)c1 [I-142] | 90 to 100 | 90 to 100
35 | 4 | O=C(NCC(F)c1ccc(Cl)cc1Cl)c1c(Oc2cccc(C(F)(F)F)c2)nnc2c1CCC2 (stereo not drawn) [I-186] | 90 to 100 | 90 to 100
36 | 4.44 | Cc1cc(Br)ccc1C(F)(F)CNC(=O)c1c(Oc2cccc(Cl)c2F)nnc2c1CCCC2 [I-152] | 80 to 89 | 90 to 100
37 | 3.94 | O=C(NCC(F)c1ccc(Cl)cc1Cl)c1c(Oc2cccc(Cl)c2F)nnc2c1CCCC2 (stereo not drawn) [I-149] | 90 to 100 | 90 to 100
38 | 4.17 | Cc1cc(Br)ccc1C(F)(F)CNC(=O)c1c(Oc2cccc(Cl)c2)nnc2c1CCCC2 [I-151] | 80 to 89 | 90 to 100
39 | 3.84 | Cc1ccc(C(F)(F)CNC(=O)c2c(Oc3cccc(Cl)c3F)nnc3c2CCC3)c(Cl)c1 [I-143] | 90 to 100 | 90 to 100
40 | 3.89 | Cc1ccc(C(F)(F)CNC(=O)c2c(Oc3cccc(Cl)c3)nnc3c2CCCC3)c(C)c1 [I-121] | 90 to 100 | 90 to 100
41 | 3.68 | Cc1ccc(C(F)(F)CNC(=O)c2c(Oc3cccc(C(F)F)c3)nnc3c2CCCC3)c(C)c1 [I-129] | 90 to 100 | 90 to 100
42 | 4.3 | Cc1cccc(Oc2cnc3ccccc3c2C(=O)NCC(F)(F)c2ccc(C)cc2C)c1 [I-222] | 80 to 89 | 90 to 100
43 | 4.05 | O=C(NCC(F)(F)c1ccc(Br)cc1Cl)c1c(Oc2cccc(Cl)c2F)nnc2c1CCC2 [I-213] | 80 to 89 | 90 to 100
44 | 4.11 | Cc1cc(Cl)ccc1C(F)(F)CNC(=O)c1c(Oc2cccc(Cl)c2)nnc2c1CCCC2 [I-146] | 80 to 89 | 90 to 100

Reference: patent US20230192617A1, “AZABICYCLIC(THIO)AMIDES AS FUNGICIDAL COMPOUNDS” (Bayer CropScience Aktiengesellschaft, priority 2020, published 2023)
